This is an account of results in patent US4762821A, “N',N"-dialkylguanidino dipeptides” (Syntex (U.S.A.) Inc., priority 1986, dated 1988).

The assay concerns the target T1, ACE from crude rabbit lung acetone powder (Oryctolagus cuniculus, UniProt P12822).
T1 construct: a preparation of ACE from crude rabbit lung acetone powder; from tissue; host or cells: rabbit lung (crude acetone powder)
T1 sequence (P12822 34-1310): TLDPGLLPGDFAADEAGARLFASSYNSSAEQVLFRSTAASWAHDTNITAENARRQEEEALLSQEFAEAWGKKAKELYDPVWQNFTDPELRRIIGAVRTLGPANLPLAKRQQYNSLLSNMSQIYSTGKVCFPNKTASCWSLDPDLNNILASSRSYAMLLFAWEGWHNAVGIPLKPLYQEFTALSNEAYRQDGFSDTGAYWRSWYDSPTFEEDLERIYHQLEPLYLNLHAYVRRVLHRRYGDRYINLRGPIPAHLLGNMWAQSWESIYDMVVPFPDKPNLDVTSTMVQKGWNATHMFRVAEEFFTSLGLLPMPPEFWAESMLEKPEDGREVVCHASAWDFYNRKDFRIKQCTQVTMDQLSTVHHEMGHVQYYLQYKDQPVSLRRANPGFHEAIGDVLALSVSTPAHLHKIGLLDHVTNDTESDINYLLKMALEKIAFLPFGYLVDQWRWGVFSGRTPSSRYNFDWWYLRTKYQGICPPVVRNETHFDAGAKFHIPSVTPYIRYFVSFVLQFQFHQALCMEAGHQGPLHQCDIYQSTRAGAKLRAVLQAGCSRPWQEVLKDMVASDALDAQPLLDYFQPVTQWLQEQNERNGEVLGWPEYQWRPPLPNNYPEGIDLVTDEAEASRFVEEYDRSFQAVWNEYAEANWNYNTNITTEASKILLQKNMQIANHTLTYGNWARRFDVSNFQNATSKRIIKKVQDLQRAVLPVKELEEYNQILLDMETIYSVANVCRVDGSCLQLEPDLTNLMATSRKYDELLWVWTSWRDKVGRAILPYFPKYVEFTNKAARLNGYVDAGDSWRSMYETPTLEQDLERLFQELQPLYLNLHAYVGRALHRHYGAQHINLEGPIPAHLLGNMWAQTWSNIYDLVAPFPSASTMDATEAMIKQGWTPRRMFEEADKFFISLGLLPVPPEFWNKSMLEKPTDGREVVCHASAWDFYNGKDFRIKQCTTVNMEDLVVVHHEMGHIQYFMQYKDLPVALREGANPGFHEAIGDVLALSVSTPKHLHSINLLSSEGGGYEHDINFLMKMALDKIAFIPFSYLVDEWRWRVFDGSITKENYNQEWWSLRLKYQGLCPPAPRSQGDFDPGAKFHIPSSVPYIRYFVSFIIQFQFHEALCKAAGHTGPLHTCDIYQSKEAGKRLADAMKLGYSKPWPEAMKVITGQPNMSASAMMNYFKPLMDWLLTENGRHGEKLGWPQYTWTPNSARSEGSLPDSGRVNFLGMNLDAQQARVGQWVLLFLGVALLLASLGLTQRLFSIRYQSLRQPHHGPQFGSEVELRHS
Nature of the assay: in vitro ACE inhibition, hydrolysis of hippuryl-histidyl-leucine (HHL). It is filed as biochemical. The settings on record: substrate HHL; test compound studied at concentrations between 10^-9 to 10^-4 M. The procedure: A number of in vitro and in vivo models are available to assess the biological activity of ACE inhibitors. (cf E. W. Petrillo, Jr. and M. A. Ondetti, Medical Res. Rev. 2, 1 (1982) and references therein). A particularly useful in vitro test employs a preparation of ACE from rabbit lung (either crude or purified) and uses the synthetic substrate (hippuryl-histidyl-leucine) as substrate (D. W. Cushman and H. S. Cheung, Biochem. Pharmacol., 20, 1637 (1971)). The substances to be tested are assessed for their ability to block the cleavage of the substrate and doses which cause 50% inhibition of the hydrolysis of the substrate are determined (ID50). In this and other studies, the incorporation of a literature standard (usually captopril) is helpful.
The ACE inhibiting ability of the dipeptides of formula A is assessed in the in vitro model employing a preparation of ACE from crude rabbit lung acetone powder. Hippuryl-histidyl-leucine (HHL) is used as synthetic substrate to be cleaved (hydrolysed) by ACE (D. W. Cushman and H. S. Cheung, Biochem. Pharmacol., 20, 1637 (1971)). The following compounds of formula A, identified by Arabic numerals (referred to above), were assessed for their ability to block the hydrolysis of HHL to the C-terminal dipeptide His-Leu by the ACE preparation.
With `CCN=C(NCC)NCCCC[C@H](N[C@@H](C)C(=O)N1Cc2ccccc2C[C@H]1C(=O)O)C(=O)O` [(1), (S)-N-[(S)-2-[N^G,N^G' -diethyl-(S)-homoargin-Nα-yl]propionyl]-THIQ], the “ID50 (dose which causes a 50% inhibition of the hydrolysis of HHL)” value was 60 nM. In the case of `C[C@H](N[C@@H](CCCCNC(=NCC(F)(F)F)NCC(F)(F)F)C(=O)O)C(=O)N1Cc2ccccc2C[C@H]1C(=O)O` [(2), (S)-N-[(S)-2-[N^G,N^G' -bis(2,2,2-trifluoroethyl)-(S)-homoargin-Nα-yl]propionyl]-THIQ], the “ID50 (dose which causes a 50% inhibition of the hydrolysis of HHL)” value turned out to be 90 nM. Turning to `CCCCNC(=NC)NCCCC[C@H](N[C@@H](C)C(=O)N1Cc2ccccc2C[C@H]1C(=O)O)C(=O)O` [(3), (S)-N-[(S)-2-[N^G -methyl-N^G' -n-butyl-(S)-homoargin-Nα-yl]propionyl]-THIQ], the “ID50 (dose which causes a 50% inhibition of the hydrolysis of HHL)” value worked out at 220 nM. Consider `CCN=C(NCC)NCCCC[C@H](N[C@@H](CC)C(=O)N1Cc2ccccc2C[C@H]1C(=O)O)C(=O)O` [(4), (S)-N-[(S)-2-[N^G,N^G' -diethyl-(S)-homoargin-Nα-yl]butanoyl]-THIQ], for which the “ID50 (dose which causes a 50% inhibition of the hydrolysis of HHL)” value amounted to 65 nM.

Regarding `CCN=C(NCC)NCCCC[C@H](N[C@@H](C)C(=O)N1c2ccccc2C[C@H]1C(=O)O)C(=O)O` [(10), (S)-N-[(S)-2-[N^G,N^G' -diethyl-(S)-homoargin-Nα-yl]propanoyl]-2-carboxy-2,3-dihydroindole], the “ID50 (dose which causes a 50% inhibition of the hydrolysis of HHL)” value was 180 nM.

Turning to `CCCCNC(=NC)NCCCCC(NC(C)C(=O)N1CCC[C@H]1C(=O)O)C(=O)O` (stereo partly drawn) [(11), N-[2-(N^G -methyl-N^G' -n-butyl-L-homoargin-N^α -yl)propionyl]-L-proline], the “ID50 (dose which causes a 50% inhibition of the hydrolysis of HHL)” value stood at 280 nM.

As to `CCN=C(NCC)NCCCCC(NC(CC)C(=O)N1CCC[C@H]1C(=O)O)C(=O)O` (stereo partly drawn) [(12), N-[2-(N^G,N^G' -diethyl-L-homoargin-N^α -yl)butanoyl]-L-proline], the “ID50 (dose which causes a 50% inhibition of the hydrolysis of HHL)” value was 230 nM. Take `CCCC(NC(CCCCNC(=NCC)NCC)C(=O)O)C(=O)N1CCC[C@H]1C(=O)O` (stereo partly drawn) [(13), N-[2-(N^G,N^G' -diethyl-L-homoargin-N^α -yl)pentanoyl]-L-proline]: the “ID50 (dose which causes a 50% inhibition of the hydrolysis of HHL)” value turned out to be 60 nM.
